Reference: US11767310B2, “Nicotinamide RIPK1 inhibitors” (AbbVie Inc., priority 2021, dated 2023)
Like-named read-outs stand apart in the source and are kept apart here.

How the values were obtained:
Experiment in all cases: Kinase binding screen
Conditions in all cases: read-out: Percent Control at 100 nM Compound Concentration
[1] = molecular target: HCK (Homo sapiens (Human), UniProt P08631)
[2] = molecular target: IRAK3 (Homo sapiens (Human), UniProt Q9Y616)
[3] = molecular target: MARK1 (Homo sapiens (Human), UniProt Q9P0L2)
[4] = molecular target: CAMK4 (Homo sapiens (Human), UniProt Q16566)
[5] = molecular target: ULK3 (Homo sapiens (Human), UniProt Q6PHR2)
[6] = molecular target: YES (Homo sapiens (Human), UniProt P07947)
[7] = molecular target: BMPR2 (Homo sapiens (Human), UniProt Q13873)
[8] = molecular target: NEK7 (Homo sapiens (Human), UniProt Q8TDX7)
[9] = molecular target: EGFR(L858R,T790M) (Homo sapiens (Human), UniProt P00533, L858R/T790M)
[10] = molecular target: S6K1 (Homo sapiens (Human), UniProt P23443)
[11] = molecular target: ITK (Homo sapiens (Human), UniProt Q08881)
[12] = molecular target: DCAMKL2 (Homo sapiens (Human), UniProt Q8N568)
[13] = molecular target: YANK3 (Homo sapiens (Human), UniProt Q86UX6)
[14] = molecular target: MKNK2 (Homo sapiens (Human), UniProt Q9HBH9)
[15] = molecular target: TYRO3 (Homo sapiens (Human), UniProt Q06418)
[16] = molecular target: NIM1 (Homo sapiens (Human), UniProt Q8IY84)
[17] = molecular target: PRKG1 (Homo sapiens (Human), UniProt Q13976)
[18] = molecular target: SRC (Homo sapiens (Human), UniProt P12931)
[19] = molecular target: DLK (Homo sapiens (Human), UniProt Q12852)
[20] = molecular target: MEK4 (Homo sapiens (Human), UniProt P45985)
[21] = molecular target: KIT(V559D) (Homo sapiens (Human), UniProt P10721, V559D)
[22] = molecular target: WNK2 (Homo sapiens (Human), UniProt Q9Y3S1)
[23] = molecular target: PAK4 (Homo sapiens (Human), UniProt O96013)
[24] = molecular target: MTOR (Homo sapiens (Human), UniProt P42345)
[25] = molecular target: CDKL2 (Homo sapiens (Human), UniProt Q92772)
[26] = molecular target: PFTK1 (Homo sapiens (Human), UniProt O94921)
[27] = molecular target: AKT2 (Homo sapiens (Human), UniProt P31751)
[28] = molecular target: TAOK3 (Homo sapiens (Human), UniProt Q9H2K8)
[29] = molecular target: AXL (Homo sapiens (Human), UniProt P30530)

Chain of MKNK2 (Q9HBH9 whole entry): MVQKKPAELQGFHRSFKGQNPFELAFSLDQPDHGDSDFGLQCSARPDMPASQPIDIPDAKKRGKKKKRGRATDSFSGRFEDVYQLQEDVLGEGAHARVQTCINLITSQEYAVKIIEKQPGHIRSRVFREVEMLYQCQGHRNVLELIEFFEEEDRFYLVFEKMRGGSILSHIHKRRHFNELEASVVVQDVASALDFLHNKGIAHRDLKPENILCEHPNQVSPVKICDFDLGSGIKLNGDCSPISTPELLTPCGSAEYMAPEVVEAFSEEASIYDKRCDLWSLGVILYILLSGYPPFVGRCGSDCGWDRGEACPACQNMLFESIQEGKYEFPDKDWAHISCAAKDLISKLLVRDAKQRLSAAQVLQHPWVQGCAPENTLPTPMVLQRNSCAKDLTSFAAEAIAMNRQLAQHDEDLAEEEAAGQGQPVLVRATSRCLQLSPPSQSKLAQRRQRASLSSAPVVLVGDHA
Chain of NEK7 (Q8TDX7 whole entry): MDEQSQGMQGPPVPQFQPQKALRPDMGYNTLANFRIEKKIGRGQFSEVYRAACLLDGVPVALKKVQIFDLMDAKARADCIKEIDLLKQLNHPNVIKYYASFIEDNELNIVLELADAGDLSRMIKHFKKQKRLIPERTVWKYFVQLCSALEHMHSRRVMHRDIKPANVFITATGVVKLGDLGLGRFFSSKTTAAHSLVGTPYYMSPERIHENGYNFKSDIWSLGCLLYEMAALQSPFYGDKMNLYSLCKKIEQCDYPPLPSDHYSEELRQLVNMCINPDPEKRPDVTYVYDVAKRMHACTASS
Chain of EGFR(L858R,T790M) (P00533 25-1210 T790M/L858R): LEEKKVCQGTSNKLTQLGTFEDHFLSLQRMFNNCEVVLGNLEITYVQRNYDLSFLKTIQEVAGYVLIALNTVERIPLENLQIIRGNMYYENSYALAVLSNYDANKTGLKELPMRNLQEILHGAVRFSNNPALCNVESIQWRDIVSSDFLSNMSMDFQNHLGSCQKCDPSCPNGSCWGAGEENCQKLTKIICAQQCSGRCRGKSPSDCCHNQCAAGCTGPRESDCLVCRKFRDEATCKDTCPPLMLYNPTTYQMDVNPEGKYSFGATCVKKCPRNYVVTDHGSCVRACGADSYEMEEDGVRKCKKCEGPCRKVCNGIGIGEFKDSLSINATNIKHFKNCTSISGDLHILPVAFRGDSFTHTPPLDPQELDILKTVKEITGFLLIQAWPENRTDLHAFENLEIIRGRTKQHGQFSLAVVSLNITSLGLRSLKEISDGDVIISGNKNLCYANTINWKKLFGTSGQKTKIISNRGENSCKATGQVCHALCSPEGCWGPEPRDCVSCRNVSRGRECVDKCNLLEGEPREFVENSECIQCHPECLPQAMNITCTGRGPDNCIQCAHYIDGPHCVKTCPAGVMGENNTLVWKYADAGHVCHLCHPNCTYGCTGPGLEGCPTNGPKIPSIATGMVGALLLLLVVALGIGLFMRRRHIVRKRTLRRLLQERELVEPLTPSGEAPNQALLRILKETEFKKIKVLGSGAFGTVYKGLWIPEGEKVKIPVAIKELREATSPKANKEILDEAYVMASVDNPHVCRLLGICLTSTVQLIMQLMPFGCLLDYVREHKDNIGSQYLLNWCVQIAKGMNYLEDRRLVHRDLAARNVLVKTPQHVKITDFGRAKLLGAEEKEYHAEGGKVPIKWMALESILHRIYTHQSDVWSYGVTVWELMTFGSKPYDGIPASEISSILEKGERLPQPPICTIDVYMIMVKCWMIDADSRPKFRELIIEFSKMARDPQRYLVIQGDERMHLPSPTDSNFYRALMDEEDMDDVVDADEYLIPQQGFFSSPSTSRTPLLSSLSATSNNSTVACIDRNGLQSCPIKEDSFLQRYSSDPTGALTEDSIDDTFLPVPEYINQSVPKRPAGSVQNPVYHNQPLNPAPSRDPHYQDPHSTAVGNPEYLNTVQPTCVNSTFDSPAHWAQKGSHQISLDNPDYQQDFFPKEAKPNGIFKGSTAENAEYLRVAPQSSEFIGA
Chain of ULK3 (Q6PHR2 whole entry): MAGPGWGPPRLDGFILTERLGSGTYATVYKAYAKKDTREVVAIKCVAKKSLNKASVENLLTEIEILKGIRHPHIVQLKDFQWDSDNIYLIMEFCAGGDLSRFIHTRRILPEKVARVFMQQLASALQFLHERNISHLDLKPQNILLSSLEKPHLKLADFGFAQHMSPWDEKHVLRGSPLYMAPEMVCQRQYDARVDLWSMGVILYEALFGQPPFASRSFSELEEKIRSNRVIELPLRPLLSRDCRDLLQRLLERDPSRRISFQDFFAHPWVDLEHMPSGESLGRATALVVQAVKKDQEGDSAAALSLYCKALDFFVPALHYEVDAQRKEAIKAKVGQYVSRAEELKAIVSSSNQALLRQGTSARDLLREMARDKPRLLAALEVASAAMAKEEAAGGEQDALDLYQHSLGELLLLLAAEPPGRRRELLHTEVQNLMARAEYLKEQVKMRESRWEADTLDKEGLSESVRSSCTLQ
Chain of S6K1 (P23443 whole entry): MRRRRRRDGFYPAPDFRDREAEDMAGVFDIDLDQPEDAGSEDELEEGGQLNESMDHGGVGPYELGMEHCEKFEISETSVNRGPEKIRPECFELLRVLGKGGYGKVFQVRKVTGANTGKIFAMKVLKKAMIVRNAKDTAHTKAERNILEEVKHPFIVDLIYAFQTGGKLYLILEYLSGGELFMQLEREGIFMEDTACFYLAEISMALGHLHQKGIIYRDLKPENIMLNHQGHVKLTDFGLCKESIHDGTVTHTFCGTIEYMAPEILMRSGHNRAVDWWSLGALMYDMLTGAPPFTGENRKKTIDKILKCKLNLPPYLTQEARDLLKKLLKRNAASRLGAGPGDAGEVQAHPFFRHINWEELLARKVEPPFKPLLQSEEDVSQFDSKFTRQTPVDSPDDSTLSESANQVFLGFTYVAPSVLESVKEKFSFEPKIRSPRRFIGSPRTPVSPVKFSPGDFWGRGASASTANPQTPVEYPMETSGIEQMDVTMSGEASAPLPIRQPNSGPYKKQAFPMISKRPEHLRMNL
Chain of HCK (P08631 whole entry): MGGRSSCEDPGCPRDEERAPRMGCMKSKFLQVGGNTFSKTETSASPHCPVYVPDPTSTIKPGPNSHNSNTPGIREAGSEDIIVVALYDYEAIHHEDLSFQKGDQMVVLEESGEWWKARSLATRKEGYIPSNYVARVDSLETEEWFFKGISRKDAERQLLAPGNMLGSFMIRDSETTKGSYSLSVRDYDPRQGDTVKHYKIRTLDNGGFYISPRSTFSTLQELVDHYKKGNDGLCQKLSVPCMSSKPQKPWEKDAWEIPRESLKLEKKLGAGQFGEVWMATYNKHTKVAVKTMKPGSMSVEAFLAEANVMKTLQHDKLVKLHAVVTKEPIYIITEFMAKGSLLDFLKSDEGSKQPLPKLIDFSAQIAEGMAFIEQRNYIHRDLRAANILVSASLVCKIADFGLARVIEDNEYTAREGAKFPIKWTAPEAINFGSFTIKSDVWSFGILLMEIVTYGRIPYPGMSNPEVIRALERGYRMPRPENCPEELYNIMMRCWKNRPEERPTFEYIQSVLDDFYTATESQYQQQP
Chain of IRAK3 (Q9Y616 whole entry): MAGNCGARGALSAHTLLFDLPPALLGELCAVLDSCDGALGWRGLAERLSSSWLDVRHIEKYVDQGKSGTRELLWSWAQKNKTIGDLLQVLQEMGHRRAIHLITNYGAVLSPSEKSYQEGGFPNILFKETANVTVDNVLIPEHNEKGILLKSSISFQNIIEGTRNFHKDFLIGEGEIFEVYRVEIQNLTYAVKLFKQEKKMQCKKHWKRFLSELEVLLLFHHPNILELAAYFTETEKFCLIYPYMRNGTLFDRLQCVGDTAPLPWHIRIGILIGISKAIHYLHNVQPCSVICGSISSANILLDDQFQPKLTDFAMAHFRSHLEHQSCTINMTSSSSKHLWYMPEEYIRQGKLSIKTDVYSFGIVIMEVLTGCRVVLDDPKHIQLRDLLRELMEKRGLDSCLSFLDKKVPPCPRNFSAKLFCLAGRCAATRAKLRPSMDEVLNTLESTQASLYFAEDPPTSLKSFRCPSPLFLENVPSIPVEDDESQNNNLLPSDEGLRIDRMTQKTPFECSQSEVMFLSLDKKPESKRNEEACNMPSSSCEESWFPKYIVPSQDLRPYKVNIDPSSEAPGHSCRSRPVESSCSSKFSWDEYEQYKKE
Chain of NIM1 (Q8IY84 whole entry): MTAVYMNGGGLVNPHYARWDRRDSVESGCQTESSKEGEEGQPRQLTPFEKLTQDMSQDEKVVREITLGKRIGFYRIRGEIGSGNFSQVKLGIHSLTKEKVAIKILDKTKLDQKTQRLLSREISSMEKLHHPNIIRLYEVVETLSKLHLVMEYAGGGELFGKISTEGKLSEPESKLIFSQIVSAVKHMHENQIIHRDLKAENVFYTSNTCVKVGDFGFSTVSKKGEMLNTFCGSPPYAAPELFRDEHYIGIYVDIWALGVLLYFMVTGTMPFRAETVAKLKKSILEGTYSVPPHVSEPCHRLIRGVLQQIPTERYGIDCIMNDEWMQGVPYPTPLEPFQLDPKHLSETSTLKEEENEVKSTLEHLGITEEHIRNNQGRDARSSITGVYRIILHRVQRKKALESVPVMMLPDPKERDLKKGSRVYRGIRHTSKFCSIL
Chain of MEK4 (P45985 whole entry): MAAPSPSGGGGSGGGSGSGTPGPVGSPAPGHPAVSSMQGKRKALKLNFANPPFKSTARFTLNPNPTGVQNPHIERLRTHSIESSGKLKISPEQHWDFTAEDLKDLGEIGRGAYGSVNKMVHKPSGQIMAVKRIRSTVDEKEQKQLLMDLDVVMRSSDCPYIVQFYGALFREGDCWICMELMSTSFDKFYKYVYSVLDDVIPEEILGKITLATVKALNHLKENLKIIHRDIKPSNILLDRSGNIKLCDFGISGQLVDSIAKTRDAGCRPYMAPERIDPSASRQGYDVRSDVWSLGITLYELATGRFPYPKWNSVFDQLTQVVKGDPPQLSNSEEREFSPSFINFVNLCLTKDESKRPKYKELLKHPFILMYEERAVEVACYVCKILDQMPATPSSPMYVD

## CN(C[C@@H](O)Cc1ccccc1)C(=O)c1cncc(C#Cc2cnn(C(F)F)c2)c1 [Example 2, (S)-5-((1-(difluoromethyl)-1H-pyrazol-4-yl)ethynyl)-N-(2-hydroxy-3-phenylpropyl)-N-methylnicotinamide]
[1]; HCK
  remaining activity at 0.1 µM: 100%
[2]; IRAK3
  remaining activity at 0.1 µM: 96%
[3]; MARK1
  remaining activity at 0.1 µM: 100%
[4]; CAMK4
  remaining activity at 0.1 µM: 100%
[5]; ULK3
  remaining activity at 0.1 µM: 97%
[6]; YES
  remaining activity at 0.1 µM: 100%
[7]; BMPR2
  remaining activity at 0.1 µM: 100%
[8]; NEK7
  remaining activity at 0.1 µM: 100%
[9]; EGFR(L858R,T790M)
  remaining activity at 0.1 µM: 83%
[10]; S6K1
  remaining activity at 0.1 µM: 95%
[11]; ITK
  remaining activity at 0.1 µM: 99%
[12]; DCAMKL2
  remaining activity at 0.1 µM: 100%
[13]; YANK3
  remaining activity at 0.1 µM: 67%
[14]; MKNK2
  remaining activity at 0.1 µM: 82%
[15]; TYRO3
  remaining activity at 0.1 µM: 99%
[16]; NIM1
  remaining activity at 0.1 µM: 89%
[17]; PRKG1
  remaining activity at 0.1 µM: 92%
[18]; SRC
  remaining activity at 0.1 µM: 97%
[19]; DLK
  remaining activity at 0.1 µM: 100%
[20]; MEK4
  remaining activity at 0.1 µM: 100%
[21]; KIT(V559D)
  remaining activity at 0.1 µM: 100%
[22]; WNK2
  remaining activity at 0.1 µM: 100%
[23]; PAK4
  remaining activity at 0.1 µM: 98%
[24]; MTOR
  remaining activity at 0.1 µM: 73%
[25]; CDKL2
  remaining activity at 0.1 µM: 100%
[26]; PFTK1
  remaining activity at 0.1 µM: 100%
[27]; AKT2
  remaining activity at 0.1 µM: 99%
[28]; TAOK3
  remaining activity at 0.1 µM: 92%
[29]; AXL
  remaining activity at 0.1 µM: 100%

## CN(C[C@H](Cc1ccccc1)OP(=O)(O)O)C(=O)c1cncc(C#Cc2cnn(C(F)F)c2)c1 [Example 19, (S)-1-(5-((1-(difluoromethyl)-1H-pyrazol-4-yl)ethynyl)-N-methylnicotinamido)-3-phenylpropan-2-yl dihydrogen phosphate]
[1]
  remaining activity at 0.1 µM: 100%
[2]
  remaining activity at 0.1 µM: 92%
[3]
  remaining activity at 0.1 µM: 96%
[4]
  remaining activity at 0.1 µM: 100%
[5]
  remaining activity at 0.1 µM: 96%
[6]
  remaining activity at 0.1 µM: 100%
[7]
  remaining activity at 0.1 µM: 89%
[8]
  remaining activity at 0.1 µM: 99%
[9]
  remaining activity at 0.1 µM: 94%
[10]
  remaining activity at 0.1 µM: 95%
[11]
  remaining activity at 0.1 µM: 100%
[12]
  remaining activity at 0.1 µM: 100%
[13]
  remaining activity at 0.1 µM: 54%
[14]
  remaining activity at 0.1 µM: 79%
[15]
  remaining activity at 0.1 µM: 100%
[16]
  remaining activity at 0.1 µM: 89%
[17]
  remaining activity at 0.1 µM: 100%
[18]
  remaining activity at 0.1 µM: 100%
[19]
  remaining activity at 0.1 µM: 100%
[20]
  remaining activity at 0.1 µM: 100%
[21]
  remaining activity at 0.1 µM: 96%
[22]
  remaining activity at 0.1 µM: 100%
[23]
  remaining activity at 0.1 µM: 98%
[24]
  remaining activity at 0.1 µM: 67%
[25]
  remaining activity at 0.1 µM: 95%
[26]
  remaining activity at 0.1 µM: 100%
[27]
  remaining activity at 0.1 µM: 90%
[28]
  remaining activity at 0.1 µM: 85%
[29]
  remaining activity at 0.1 µM: 96%
